Assay results as given in patent publication US9815796B2 (Merck Sharp & Dohme Corp., priority 2013, dated 2017).
Like-named read-outs stand apart in the source and are kept apart here.

What was measured:
Rhesus PDE2A3 = Rhesus PDE2A3 (Macaca mulatta, UniProt B3VTJ2); experiment: PDE2 fluorescence polarization (IMAP FP) inhibition assay, rhesus enzyme; type: biochemical, rhesus macaque
Procedure, shortened: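 IMAP FP (mP from parallel and perpendicular fluorescence against substrate-only control) was read ≥1 h after adding binding reagent. The preceding 60 min room-temperature reaction contained FAM-cAMP (50 nM) and cGMP (1 uM) in pH 7.2 Tris buffer with MgCl2 and DTT. Enzyme was supernatant of sonicated AD293 cells expressing rhesus PDE2A3; compounds were 3-fold titrated, DMSO 1% final.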

human PDE2A1 = human PDE2A1 (Homo sapiens (Human), UniProt O00408); experiment: IMAP FP PDE selectivity panel, human PDE2A1; type: biochemical
Procedure, shortened: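 IMAP FP format: substrate 50 nM FAM-cAMP plus 1000 nM cGMP, enzyme (insect-cell GST-tagged human PDE2A1) at ~20% conversion, 60 min reaction at room temperature. Apparent inhibition constants calculated from parallel/perpendicular fluorescence with KM 10,000 nM.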

[1] = Rhesus PDE2, Lab A, read-out: Rhesus PDE2 Ki (nM) - Lab A
[2] = Human PDE2, Lab A, read-out: Human PDE2 Ki (nM) - Lab A
[3] = Rhesus PDE2, Lab B, read-out: Rhesus PDE2 Ki (nM) - Lab B
[4] = Human PDE2, Lab B, read-out: Human PDE2 Ki (nM) - Lab B

Chain of Rhesus PDE2A3 (B3VTJ2 1-941): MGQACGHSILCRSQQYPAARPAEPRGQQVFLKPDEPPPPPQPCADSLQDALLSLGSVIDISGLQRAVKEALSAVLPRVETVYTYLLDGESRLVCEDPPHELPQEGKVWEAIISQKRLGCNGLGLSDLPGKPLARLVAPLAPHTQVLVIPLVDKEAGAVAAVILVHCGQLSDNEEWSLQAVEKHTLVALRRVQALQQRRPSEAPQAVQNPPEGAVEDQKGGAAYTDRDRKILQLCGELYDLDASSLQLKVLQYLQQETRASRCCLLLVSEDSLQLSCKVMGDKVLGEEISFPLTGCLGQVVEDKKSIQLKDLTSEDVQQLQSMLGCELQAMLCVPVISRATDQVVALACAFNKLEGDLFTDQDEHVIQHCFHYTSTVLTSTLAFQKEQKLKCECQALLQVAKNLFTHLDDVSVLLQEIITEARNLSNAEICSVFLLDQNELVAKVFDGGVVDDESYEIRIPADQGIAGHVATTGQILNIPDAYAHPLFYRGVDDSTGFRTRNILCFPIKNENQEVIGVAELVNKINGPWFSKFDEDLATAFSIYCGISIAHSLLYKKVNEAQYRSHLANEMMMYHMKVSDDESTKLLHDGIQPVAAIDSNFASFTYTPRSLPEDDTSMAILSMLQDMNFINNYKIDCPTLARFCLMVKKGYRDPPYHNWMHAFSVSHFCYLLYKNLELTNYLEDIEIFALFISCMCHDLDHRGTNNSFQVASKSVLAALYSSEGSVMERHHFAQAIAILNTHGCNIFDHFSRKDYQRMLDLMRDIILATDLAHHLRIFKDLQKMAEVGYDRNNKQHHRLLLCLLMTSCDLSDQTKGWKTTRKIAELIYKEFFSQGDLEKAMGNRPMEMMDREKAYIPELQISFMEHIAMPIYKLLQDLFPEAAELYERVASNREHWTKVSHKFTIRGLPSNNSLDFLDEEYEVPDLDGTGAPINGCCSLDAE
Chain of human PDE2A1 (O00408 other isoform, or with tags, fused parts or gaps): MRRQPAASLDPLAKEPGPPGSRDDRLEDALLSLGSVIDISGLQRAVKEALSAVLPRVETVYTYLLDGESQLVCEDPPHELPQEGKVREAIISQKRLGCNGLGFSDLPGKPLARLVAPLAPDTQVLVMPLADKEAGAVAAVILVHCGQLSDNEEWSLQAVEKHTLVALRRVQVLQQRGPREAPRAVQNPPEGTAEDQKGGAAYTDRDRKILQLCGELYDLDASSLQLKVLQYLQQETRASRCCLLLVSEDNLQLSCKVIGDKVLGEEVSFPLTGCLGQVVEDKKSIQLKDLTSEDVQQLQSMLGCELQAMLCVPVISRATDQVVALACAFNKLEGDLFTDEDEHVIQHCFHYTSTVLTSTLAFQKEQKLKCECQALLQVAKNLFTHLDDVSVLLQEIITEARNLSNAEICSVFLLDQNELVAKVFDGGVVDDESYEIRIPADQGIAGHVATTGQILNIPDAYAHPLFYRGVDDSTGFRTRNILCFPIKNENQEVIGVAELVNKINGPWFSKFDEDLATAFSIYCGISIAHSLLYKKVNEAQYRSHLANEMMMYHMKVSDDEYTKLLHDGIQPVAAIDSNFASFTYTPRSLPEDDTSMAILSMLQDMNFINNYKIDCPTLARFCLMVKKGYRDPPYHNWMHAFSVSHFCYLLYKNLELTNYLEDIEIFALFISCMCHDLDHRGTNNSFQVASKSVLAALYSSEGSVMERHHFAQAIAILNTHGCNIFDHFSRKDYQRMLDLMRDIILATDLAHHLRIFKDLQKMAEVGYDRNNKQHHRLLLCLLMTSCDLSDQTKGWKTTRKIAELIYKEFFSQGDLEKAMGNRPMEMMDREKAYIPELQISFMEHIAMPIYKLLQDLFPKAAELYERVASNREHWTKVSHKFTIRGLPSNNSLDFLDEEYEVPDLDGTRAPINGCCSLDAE

Structure (SMILES)	Ki (Rhesus PDE2A3; [1]) [nM]	Ki (human PDE2A1; [2]) [nM]	Ki (Rhesus PDE2A3; [3]) [nM]	Ki (human PDE2A1; [4]) [nM]
CCc1c(C(=O)N[C@H](C)c2ccc(C(F)(F)F)cc2)nc[nH]c1=O [Example 332, (R)-5-ethyl-6-oxo-N-(1-(4-(trifluoromethyl)phenyl)ethyl)-1,6-dihydropyrimidine-4-carboxamide]	2900	2270	–	–
COc1ccc(Cc2nc(C(=O)N[C@@H](c3ccc(OC(F)(F)F)cc3)C(C)C)cc(=O)[nH]2)cc1F [Example 517, 2-(3-fluoro-4-methoxybenzyl)-N-{(1R)-2-methyl-1-[4-(trifluoromethoxy)phenyl]propyl}-6-oxo-1,6-dihydropyrimidine-4-carboxamide]	–	–	1.3	1.7
Cc1nc(C(=O)N[C@@H](c2ccc(CC(F)(F)F)cc2)C(C)(C)C)cc(=O)[nH]1 [Example 61, (R)-N-(2,2-dimethyl-1-(4-(2,2,2-trifluoroethyl)phenyl)propyl)-2-methyl-6-oxo-1,6-dihydropyrimidine-4-carboxamide]	–	–	10	8.2
COc1ccc(Cc2nc(C(=O)N[C@@H](c3ccc(SC(F)(F)F)cc3)C(C)(C)C)cc(=O)[nH]2)cc1F [Example 507, N-[(1R)-2,2-dimethyl-1-{4-[(trifluoromethyl)sulfanyl]phenyl}propyl]-2-(3-fluoro-4-methoxybenzyl)-6-oxo-1,6-dihydropyrimidine-4-carboxamide]	–	–	1.1	1
Cc1nc(C(=O)N[C@@H](c2ccc(OC(F)(F)F)cc2)C2CC2)cc(=O)[nH]1 [Example 70, N-{(R)-cyclopropyl[4-(trifluoromethoxy)phenyl]methyl}-2-methyl-6-oxo-1,6-dihydropyrimidine-4-carboxamide]	25	~14	29	29
Cc1nc(C(=O)N[C@@H](c2ccc(C3CC3)cc2)C2CC2)cc(=O)[nH]1 [Example 50, N-[(R)-cyclopropyl(4-cyclopropylphenyl)methyl]-2-methyl-6-oxo-1,6-dihydropyrimidine-4-carboxamide]	8	–	11	8.1
COc1ccc(Cc2nc(C(=O)N[C@@H](c3ccc(S(F)(F)(F)(F)F)cc3)C3CC3)cc(=O)[nH]2)cc1 [Example 468, N-{(R)-cyclopropyl[4-(pentafluoro-λ^6-sulfanyl)phenyl]methyl}-2-(4-methoxybenzyl)-6-oxo-1,6-dihydropyrimidine-4-carboxamide]	–	–	2.8	2.3
CC[C@@H](NC(=O)c1cc(=O)[nH]c(Cc2ccc(OC)cc2)n1)c1ccc(C(F)(F)F)c(F)c1 [Example 483, N-{(1R)-1-[3-fluoro-4-(trifluoromethyl)phenyl]propyl}-2-(4-methoxybenzyl)-6-oxo-1,6-dihydropyrimidine-4-carboxamide]	–	–	3	2.9
C[C@@H](NC(=O)c1cc(=O)[nH]c(-c2ncccn2)n1)c1cc(F)c(C(F)(F)F)c(F)c1 [Example 108, N-{(1R)-1-[3,5-difluoro-4-(trifluoromethyl)phenyl]ethyl}-6-oxo-1,6-dihydro-2,2′-bipyrimidine-4-carboxamide]	25	~9.2	33	39
O=C(NC1(c2ccc(OC(F)(F)F)c(F)c2)CC1)c1cc(=O)[nH]c(-c2ncccn2)n1 [Example 81, N-{1-[3-fluoro-4-(trifluoromethoxy)phenyl]cyclopropyl}-6-oxo-1,6-dihydro-2,2′-bipyrimidine-4-carboxamide]	23	–	17	25
CC[C@@H](NC(=O)c1cc(=O)[nH]c(Cc2ccc(OC)c(F)c2)n1)c1ccc(SC(F)(F)F)cc1 [Example 518, 2-(3-fluoro-4-methoxybenzyl)-6-oxo-N-[(1R)-1-{4-[(trifluoromethyl)sulfanyl]phenyl}propyl]-1,6-dihydropyrimidine-4-carboxamide]	–	–	1.8	1.7
COc1ccc(Cc2nc(C(=O)N[C@@H](c3ccc(C(F)(F)F)cc3)C(C)C)cc(=O)[nH]2)cc1F [Example 516, 2-(3-fluoro-4-methoxybenzyl)-N-{(1R)-2-methyl-1-[4-(trifluoromethyl)phenyl]propyl}-6-oxo-1,6-dihydropyrimidine-4-carboxamide]	–	–	1.6	1.5
C[C@@H](NC(=O)c1cc(=O)[nH]c(Cc2cccnc2)n1)c1ccc(C(F)(F)F)cc1 [Example 6, 6-oxo-2-(pyridin-3-ylmethyl)-N-{(1R)-1-[4-(trifluoromethyl)phenyl]ethyl}-1,6-dihydropyrimidine-4-carboxamide]	55	33	–	–
COc1ccc(Cc2nc(C(=O)N[C@@H](c3ccc(C(F)(F)F)cc3)C3CC3)cc(=O)[nH]2)cc1F [Example 525, N-{(R)-cyclopropyl[4-(trifluoromethyl)phenyl]methyl}-2-(3-fluoro-4-methoxybenzyl)-6-oxo-1,6-dihydropyrimidine-4-carboxamide]	–	–	2.3	1.9
O=C(N[C@@H](c1ccc(S(F)(F)(F)(F)F)cc1)C1CC1)c1cc(=O)[nH]c(C2CC2)n1 [Example 397, 2-cyclopropyl-N-{(R)-cyclopropyl[4-(pentafluoro-λ^6-sulfanyl)phenyl]methyl}-6-oxo-1,6-dihydropyrimidine-4-carboxamide]	–	–	8.2	8.6
COCc1nc(C(=O)N[C@H](C)c2ccc(SC(F)(F)F)cc2)cc(=O)[nH]1 [Example 123, 2-(methoxymethyl)-6-oxo-N-[(1R)-1-{4-[(trifluoromethyl)sulfanyl]phenyl}ethyl]-1,6-dihydropyrimidine-4-carboxamide]	39	~8.2	31	–
O=C(NC1(c2ccc(OC(F)(F)F)cc2)CCC1)c1cc(=O)[nH]c(C2CC2)n1 [Example 300, 2-cyclopropyl-6-oxo-N-{1-[4-(trifluoromethoxy)phenyl]cyclobutyl}-1,6-dihydropyrimidine-4-carboxamide]	88	55	–	–
COc1ccc(Cc2nc(C(=O)N[C@@H](c3ccc(OC(F)(F)F)c(F)c3)C3CC3)cc(=O)[nH]2)cc1F [Example 521, N-{(R)-cyclopropyl[3-fluoro-4-(trifluoromethoxy)phenyl]methyl}-2-(3-fluoro-4-methoxybenzyl)-6-oxo-1,6-dihydropyrimidine-4-carboxamide]	–	–	2.3	2.2
CC[C@@H](NC(=O)c1cc(=O)[nH]c(Cc2ccc(OC)cc2)n1)c1ccc(SC(F)(F)F)cc1 [Example 476, 2-(4-methoxybenzyl)-6-oxo-N-[(1R)-1-{4-[(trifluoromethyl)sulfanyl]phenyl}propyl]-1,6-dihydropyrimidine-4-carboxamide]	–	–	1.4	1.8
Cc1nc(C(=O)N[C@@H](c2ccc(C(F)(F)F)cc2)C(C)C)cc(=O)[nH]1 [Example 316, 2-methyl-N-{(1R)-2-methyl-1-[4-(trifluoromethyl)phenyl]propyl}-6-oxo-1,6-dihydropyrimidine-4-carboxamide]	13	7.1	–	–
Cc1nc(C(=O)NC(C)(C)c2ccc(C(F)(F)F)cc2Cl)cc(=O)[nH]1 [Example 593, N-{1-[2-chloro-4-(trifluoromethyl)phenyl]-1-methylethyl}-2-methyl-6-oxo-1,6-dihydropyrimidine-4-carboxamide]	–	–	11	10
COc1ccc(Cc2nc(C(=O)N[C@@H](c3ccc(S(F)(F)(F)(F)F)cc3)C3CC3)cc(=O)[nH]2)cc1F [Example 510, N-{(R)-cyclopropyl[4-(pentafluoro-λ^6-sulfanyl)phenyl]methyl}-2-(3-fluoro-4-methoxybenzyl)-6-oxo-1,6-dihydropyrimidine-4-carboxamide]	–	–	3.3	2.8
Cc1nc(C(=O)NC2(c3ccc(S(F)(F)(F)(F)F)cc3)CC2)cc(=O)[nH]1 [Example 622, 2-methyl-6-oxo-N-{1-[4-(pentafluoro-λ^6-sulfanyl)phenyl]cyclopropyl}-1,6-dihydropyrimidine-4-carboxamide]	–	–	32	42
CC[C@@H](NC(=O)c1cc(=O)[nH]c(COC)n1)c1ccc(OC(F)(F)F)c(F)c1 [Example 114, N-{(1R)-1-[3-fluoro-4-(trifluoromethoxy)phenyl]propyl}-2-(methoxymethyl)-6-oxo-1,6-dihydropyrimidine-4-carboxamide]	48	~11	–	–
COc1ccc(C(C)(C)c2nc(C(=O)N[C@@H](c3ccc(C(F)(F)F)cc3)C(C)C)cc(=O)[nH]2)cc1 [Example 493, 2-[1-(4-methoxyphenyl)-1-methylethyl]-N-{(1R)-2-methyl-1-[4-(trifluoromethyl)phenyl]propyl}-6-oxo-1,6-dihydropyrimidine-4-carboxamide]	–	–	77	62
C[C@@H](NC(=O)c1cc(=O)[nH]c(-c2ccccc2)n1)c1ccc(C2CC2)cc1 [Example 423, N-[(1R)-1-(4-cyclopropylphenyl)ethyl]-6-oxo-2-phenyl-1,6-dihydropyrimidine-4-carboxamide]	3	–	–	5.6
CC1(C(NC(=O)c2cc(=O)[nH]c(-c3ccccc3)n2)c2ccc(SC(F)(F)F)c(F)c2)CC1 (single isomer, unassigned) [Example 707, (R)- or (S)-N-((3-fluoro-4-((trifluoromethyl)thio)phenyl)(1-methylcyclopropyl)methyl)-6-oxo-2-phenyl-1,6-dihydropyrimidine-4-carboxamide]	–	–	8.3	7.7
